Data on 1 substance can be found in patent US20100092465A1, “TREATMENT OF GRAFT-VERSUS-HOST DISEASE” (priority 2006, published 2010).

This test deals with P815 cells. The test is described as follows: CTL-specific lysis assay with splenocytes of GVHD mice. Type of test: cell-based, mouse. Particulars: splenocytes of treated animals versus PBS; calcein-labeled P815 targets. As for the experimental part:
Efficacy of IL-27 antagonists was assayed in a mouse model of acute graft-vs-host disease (Durie et al., J. Clin. Invest. 94:1333-1338, 1994). Parental mice (C57BL/6; n=12) were euthanized, and their spleens were collected. The pooled spleens were smashed using two glass slides to dissociate splenic cells. Lysis buffer was added to the splenocyte suspension to remove red blood cells. The cells were washed in RPMI 1640 (10% FBS) medium and resuspended in an appropriate amount of PBS to make a cell concentration of 300 million cells/ml. Protein treatments were administered by intraperitoneal injection every other day beginning on day-1 and continuing until day 15. Dexamethasone (DEX) was administered by injection daily on days 0 through 6. […] Mice were monitored 3 times a week for changes in body weight and any signs of moribundity. […] Spleens were collected, and a CTL-specific lysis assay using P815 cells was performed as a quantitative measurement of acute GVHD. […]
For CTL assay, P815 cells (a tumor cell line from mice with the same MHC class as DBA2) were labeled with calcein, then splenocytes from each experimental animal were added to the calcein-labeled P815 cells at effector (splenocytes):target (P815) ratios of 100:1, 33:1, and 10:1. Four hours after incubation at 37° C., supernatants were collected and fluorescence was measured (485 nm/535 nm).

In the case of “human IL-27RA-Fc5: human IL27RA extracellular domain (amino acids 1 to 512 of SEQ ID NO:5) fused to Fc5, effector minus human gamma1 Fc; SEQ ID NO:3”, the CTL activity result is reported as “reduced CTL activity compared to PBS”.
